From patent publication US20260199365A1, “BIS-SULFONAMIDE SHIP1 ACTIVATORS” (The Research Foundation for the State University of New York, priority 2022, published 2026)

Assays:
[1] = target: T1, recombinant human truncated SHIP1 (tSHIP1) (Homo sapiens, UniProt Q92835); test: Malachite Green Phosphatase Release Assay (SHIP1 phosphatase activity); assay type: biochemical; details: for Phosphatase activity in the Malachite Green Assay, analog concentration 125 μM: 125 μM analog; for Phosphatase activity in the Malachite Green Assay, analog concentration 125 μM / Phosphatase activity in the Malachite Green Assay, analog concentration 250 μM / Phosphatase activity in the Malachite Green Assay, analog concentration 500 μM: 100 μM PI(3,4,5)P3-diC8 substrate, normalized to vehicle control (DMSO) = 100%; for Phosphatase activity in the Malachite Green Assay, analog concentration 250 μM: 250 μM analog; for Phosphatase activity in the Malachite Green Assay, analog concentration 500 μM: 500 μM analog, >100% activation, <100% inhibition; for SHIP1 activator activity in the malachite green assay: discussion of Table 4 (125-500 μM)
T1 construct: tSHIP1 (SHIP1, residues 397-864) was amplified from pET24TEV-tSHIP1; His tag; made in house; host or cells: E. coli BL21
T1 sequence (Q92835 397-864): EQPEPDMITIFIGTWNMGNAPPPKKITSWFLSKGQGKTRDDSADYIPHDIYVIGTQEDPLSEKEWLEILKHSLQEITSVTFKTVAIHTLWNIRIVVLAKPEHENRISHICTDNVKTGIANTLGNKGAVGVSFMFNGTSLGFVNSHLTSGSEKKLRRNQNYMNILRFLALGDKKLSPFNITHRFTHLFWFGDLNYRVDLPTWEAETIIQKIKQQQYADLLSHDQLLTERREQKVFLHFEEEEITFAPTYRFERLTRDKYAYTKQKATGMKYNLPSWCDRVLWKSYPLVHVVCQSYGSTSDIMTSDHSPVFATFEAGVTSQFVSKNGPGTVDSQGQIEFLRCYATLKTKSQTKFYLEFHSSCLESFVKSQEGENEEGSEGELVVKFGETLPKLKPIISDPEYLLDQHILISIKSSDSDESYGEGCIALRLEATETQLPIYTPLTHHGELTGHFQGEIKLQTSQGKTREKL
Description: ^aPhosphatase activity for SHIP1 and SHIP2 enzyme as determined in the malachite green assay. Results were normalized to the phosphatase activity level from vehicle control (DMSO) used as 100% activity. Values >100% are attributed to activation, while values <100% show inhibition of the enzyme compared to the control. The assay was performed at the indicated concentration of the small molecule with 100 μM PI(3,4,5)P3-diC8 as the substrate. ^bnd=not determined, compound 23 was insoluble.
Cloning and expression of tSHIP1 of truncated human SHIP1 protein (tSHIP1) from human whole blood mRNA have been previously described (see Brooks R, Iyer, S., Akada, H., Neelam, S., Russo, C. M., Chisholm, J. D., and Kerr W. G. Coordinate Expansion of Murine Hematopoietic and Mesenchymal Stem Cell Compartments by SHIPi Stem Cells 2015; 33:848). Briefly, tSHIP1 (SHIP1, residues 397-864) was amplified from pET24TEV-tSHIP1. Plasmids were extracted with Midi Prep (Qiagen) and sequences were verified by sequencing of the entire expression regions. The plasmids were then transformed into E. coli BL21 (New England Biolabs). Fresh colonies were amplified in 1 L LB at 37° C., shaking at 250 rpm until OD600 nm reached 0.6. Protein expression was induced with […] IPTG and incubation was continued at 16° C., shaking at 250 rpm for 16 h. Following centrifugation, bacteria pellets were stored overnight at −20° C. Protein was extracted form bacterial cell pellet using BugBuster HT (Millipore), according to manufacturer's recommendations. The His-tagged protein was purified by FPLC using HisTrapHP 5 ml column (Cytiva Life Sciences) at a 5 ml/min flow rate and 10 mM-1M imidazole gradient in Buffer A (20 mM Tris pH 8.0, 300 mM NaCl, 10 mM imidazole, 5 mM β-mercaptoethanol). Fractions containing active protein by Malachite Green Phosphatase Release Assay (Echelon, see below) were pooled, concentrated and buffer exchanged to reduce imidazole concentration by centrifugation using Pierce Protein Concentrators 30KMWCO PES, (ThermoFisher Scientific). Protein was aliquoted and stored at −80° C. in a mixture of Buffer A (without β-ME) and 50% glycerol.
Malachite Green Phosphatase Release Assays: Malachite Green Phosphatase Release Assays (Echelon Biosciences) were performed with recombinant human truncated SHIP1 (tSHIP1) (Brooks, 2015) and SHIP2 (Echelon Biosciences). Briefly, serial dilutions of the compounds dissolved in DMSO were added to the recombinant enzymes diluted in reaction buffer Rx (50 mM Hepes pH 7.4, 150 mM NaCl, 1 mM MgCl2, 0.25 mM EDTA) in triplicate reactions in 96-well plates. Reactions were incubated for 2 min at room temperature. […] of 1 mM Phosphatidylinositol 3,4,5-trisphosphate diC8 (PI(3,4,5)P3diC8) (Echelon Biosciences) was added to each reaction to a final concentration of 100 μM in a final volume of […]. Following 20 min incubation at 37° C., 100 μL of Malachite Green Solution (Echelon Biosciences) was added to each well and plates were incubated at room temperature in the dark for 15 min. Plates were then read at 620 nm on a plate reader (Synergy 2, BioTek).

[2] = test system: IL-6 production in BV-2 cells; test: ELISA quantitation of IL-6 production in BV-2 cells after stimulation with LPS; assay type: cell-based, murine; details: 1 h pretreatment with SHIP1 activator 10 μM, then LPS
Description: FIG. 3 presents an ELISA quantitation of IL-6 production in BV-2 cells after stimulation with LPS. BV-2 cells were plated and treated for 1 h with vehicle (Veh, 0.25% DMSO) or SHIP1 activator (10 μM in Veh) prior to addition of LPS (100 ng/ml). Unstimulated BV2 cells treated with Veh are shown as an additional control to assess LPS induction of IL-6. (A) Evaluation of 1, 26, 29 and 53. (B) In a separate experiment, 70, and 71 were evaluated under similar conditions. Bars indicate Mean G SEM; statistical tests: two-way ANOVA with Tukey correction, **** p<0.0001, ** p<0.01.
Given this experience, some of the new activators were evaluated in a cell-based setting. Using the immortalized BV-2 cell line, which is derived from murine microglia and retains many microglial morphological and functional characteristics of microglia, an assay for the anti-inflammatory effects of these activators was developed. This assay involved treatment of the cells with lipopolysaccharides (LPS) to induce IL-6 production which can then be quantified with an ELISA.
Cell culture: The BV2 cell line was obtained from the ATCC (American Type Culture Collection). The ATCC and performs genetic validation on deposited cell lines. For the inflammatory cytokines production studies, BV2 cells were cultured in DMEM/F12 (Corning) 10% HI FBS at 37° C. and 5% CO2 in a humidified incubator and split 1:6 every 3 days with Cellstripper™ (Corning). Cells were kept at 37° C. and 5% CO2 in a humidified incubator.
ELISA measurements: Parental (scrambled guide control) BV2 cells were seeded at 5×10^5/mL, […] in 48 well plate. Cell were treated with […] small molecule or vehicle control (0.5% DMSO) and incubated for 1 h before addition of stimuli. LPS (10 ng/ml, E. coli O111: B4, Sigma) was added to the cells and incubated for 6 h to detect IL-6 production. Supernatants were spun down at 400×g for 5 minutes to remove cell debris and froze at −20° C. for ELISAs. IL-6 levels were quantified from cellular supernatants with ELISA MAX™ Standard Set Mouse IL-6 kit (Biolegend), following manufacturer's recommendations. We detected absorbance at 450 nm and removed 570 nm background absorbance, with a plate reader (Synergy 2, BioTek). All experiments were repeated three times and each value was reported as mean±SEM from biological replicates in the same assay. All statistical analysis were performed using GraphPad Prism (version 9.2). Two-way ANOVA was used to analyze all data with two independent variables as time and treatment or concentration and treatment, data is reported as Mean+/−SEM.

[3] = Solubility of the isolated solid in common solvents; assay type: physicochemical; details: DMSO, acetone, methanol, chloroform, and water
Source text: While most of the analogs in Table 1 were easy to handle, attempts to isolate the thiomorpholine sulfone 23 were problematic. During the final sulfonamide formation to access 23 an insoluble solid was formed and filtered from the reaction mixture. […] A combustion analysis did match the formula for the desired product, however given the insolubility of this substance it was not evaluated further.

Phosphatase activity in the Malachite Green Assay, analog concentration 125 μM [1] | Phosphatase activity in the Malachite Green Assay, analog concentration 250 μM [1] | Phosphatase activity in the Malachite Green Assay, analog concentration 500 μM [1] | SHIP1 activator activity in the malachite green assay [1] | Solubility [3] | Structure (SMILES) | IL-6 production induced by LPS [2]
116% | 119% | 128% | nearly as active as K306 | – | Cc1sc(S(=O)(=O)N2CCCCC2)cc1NC(=O)CNS(=O)(=O)c1ccc(F)cc1 [Compound K368, 2-(4-Fluorobenzenesulfonamido)-N-[2-methyl-5-(piperidine-1-sulfonyl)thiophen-3-yl]acetamide] | especially significant reductions of IL-6 production
– | – | – | – | insoluble in any solvent | Cc1sc(S(=O)(=O)N2CCS(=O)(=O)CC2)cc1NC(=O)CNS(=O)(=O)c1ccc(F)cc1 [Compound 23] | –
94% | 97% | 107% | less active | – | O=C(CNS(=O)(=O)c1ccc(F)cc1)Nc1cccc(S(=O)(=O)N2CCSCC2)c1 [Compound K400, 2-(4-Fluorobenzenesulfonamido)-N-[3-(thiomorpholine-4-sulfonyl)phenyl]acetamide] | –

Further lines, the molecule ahead of its results:

Structure (SMILES) | Phosphatase activity in the Malachite Green Assay, analog concentration 125 μM [1] | Phosphatase activity in the Malachite Green Assay, analog concentration 250 μM [1] | Phosphatase activity in the Malachite Green Assay, analog concentration 500 μM [1] | SHIP1 activator activity in the malachite green assay [1] | Solubility [3] | IL-6 production induced by LPS [2]
Cc1sc(S(=O)(=O)N2CCSCC2)cc1NC(=O)[C@@H]1CCCN1S(=O)(=O)c1ccc(F)cc1 [Compound K408] | 107% | 127% | 130% | significant activity at 250 μM | – | significant decrease in IL-6 formation
CCCCNS(=O)(=O)c1cc(NC(=O)CNS(=O)(=O)c2ccc(F)cc2)c(C)s1 [Compound K382, N-[5-(Butylsulfamoyl)-2-methylthiophen-3-yl]-2-(4-fluorobenzenesulfonamido) acetamide] | 124% | 124% | 122% | – | – | especially significant reductions of IL-6 production
Cc1sc(S(=O)(=O)N2CCSCC2)cc1NC(=O)CNS(=O)(=O)c1ccccc1C(F)(F)F [Compound K403, N-[2-methyl-5-(thiomorpholine-4-sulfonyl)thiophen-3-yl]-2-(2-trifluoromethylbenzenesulfonamido) acetamide] | 106% | 108% | 139% | good activator activity | – | significant activity
